Assay results: US9062088B2, “CDK-inhibiting pyrrolopyrimidine carboxamide derivative or pharmaceutically acceptable salt thereof, and pharmaceutical composition containing the same as active ingredient for preventing or treating hepatocellular carcinoma” (SNU R&DB Foundation, priority 2010, dated 2015)

How the values were obtained:
[1] = tested on: SNU-354 cells; experiment: FACS analysis of sub G1 ratio (Experimental Example 1-6-3); type: cell-based, human
Procedure: The cells were collected and washed with cold PBS, followed by reaction in 500 μl of cold 70% ethanol at 4° C. for overnight to fix the cells. The cells were washed with 500 μl of PBS three times, followed by reaction with 500 μl of PBS containing 50 μg/mL propidium iodide (P1) and 50 μl of 1 mg/mL RNAse A at room temperature for 30 minutes in the darkness. Fluorescence of the P1 stained cell was measured by using caliber flow cytometer and cell quest program (Becton Dickinson Immunocytometry Systems, CA, USA). Sub G1 ratio changes of HCC SNU-354 cells induced by the compounds of Examples 1 and 2 were measured by FACS analysis. The results are shown in FIG. 19, FIG. 20, Table 9 and Table 10.

[2] = biological target: T1, Cdk9/cyclin T1 (Homo sapiens, UniProt P50750); experiment: In vitro kinase assay of Cdk9, RNA Pol II-CTD-GST substrate; type: biochemical; details: 0 nM = 100
T1 construct: purchased Upstate
T1 sequence (P50750 whole entry): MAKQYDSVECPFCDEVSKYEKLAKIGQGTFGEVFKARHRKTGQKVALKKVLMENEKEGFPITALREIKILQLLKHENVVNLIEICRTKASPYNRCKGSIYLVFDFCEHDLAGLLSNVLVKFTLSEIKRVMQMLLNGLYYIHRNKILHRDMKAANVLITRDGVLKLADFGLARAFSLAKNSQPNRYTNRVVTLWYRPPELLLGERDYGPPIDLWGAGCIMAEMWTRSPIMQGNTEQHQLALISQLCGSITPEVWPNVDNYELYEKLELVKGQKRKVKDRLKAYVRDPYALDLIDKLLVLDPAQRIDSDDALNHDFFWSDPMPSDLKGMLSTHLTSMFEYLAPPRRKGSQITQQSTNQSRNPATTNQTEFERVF
T1 sequence (O60563 whole entry partner): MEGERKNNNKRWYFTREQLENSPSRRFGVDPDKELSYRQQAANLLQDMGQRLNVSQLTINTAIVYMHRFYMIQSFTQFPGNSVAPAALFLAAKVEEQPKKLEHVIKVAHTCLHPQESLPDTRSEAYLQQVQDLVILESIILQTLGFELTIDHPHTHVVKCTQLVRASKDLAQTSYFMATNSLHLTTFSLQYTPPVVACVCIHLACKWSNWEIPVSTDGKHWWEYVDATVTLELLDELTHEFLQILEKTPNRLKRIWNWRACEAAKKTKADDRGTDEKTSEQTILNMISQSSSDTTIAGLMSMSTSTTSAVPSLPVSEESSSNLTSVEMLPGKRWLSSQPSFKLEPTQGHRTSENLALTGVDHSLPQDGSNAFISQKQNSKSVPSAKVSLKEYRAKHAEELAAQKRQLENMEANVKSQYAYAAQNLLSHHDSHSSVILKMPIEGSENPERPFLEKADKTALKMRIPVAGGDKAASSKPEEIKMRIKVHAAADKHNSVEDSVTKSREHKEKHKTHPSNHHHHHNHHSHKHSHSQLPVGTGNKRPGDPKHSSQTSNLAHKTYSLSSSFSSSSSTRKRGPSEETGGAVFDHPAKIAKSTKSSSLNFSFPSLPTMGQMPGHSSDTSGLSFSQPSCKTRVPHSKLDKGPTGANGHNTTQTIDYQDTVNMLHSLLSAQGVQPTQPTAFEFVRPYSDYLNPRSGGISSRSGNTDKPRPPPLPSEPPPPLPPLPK
Procedure: To kinase assay buffer were added RNA Pol II-CTD-GST protein (Jena Bioscience, Germany) as a substrate, Cdk9/cyclin T1 or Cdk7/cyclin H/MAT1 recombinant protein (Upstate) as an enzyme, 2.5 μCi [γ-32P]ATP, and 100 μM MgAc/ATP. The total reaction volume was adjusted to 50 μl. Kinase assay reaction was induced at 30° C. for 20 minutes. Upon completion of the reaction, electrophoresis was performed on 8% SDS-polyacrylamide gel. The activities of Cdk7 and Cdk9 over the concentrations of the compounds of Example 1 and Example 2 were confirmed by autoradiography and the results are shown in FIG. 5˜FIG. 8 and Table 3.
(§1) The intensity of bands was analyzed by densitometry (GS-800, Bio-Rad).

[3] = tested on: caspase-3 activity in SNU-354 cells; experiment: Measurement of caspase-3 activity (Experimental Example 1-6-2); type: cell-based, human
Procedure: SNU-354 cells treated with the compounds of Examples 1 and 2 were lysed with lysis buffer (0.5% triton X-100, 20 mM Tris-HCl (pH 7.5), 2 mM magnesium chloride, 1 mM DTT, 1 mM EGTA, 50 mM β-glycerophosphate, 25 mM sodium fluoride, 1 mM Na3VO4, 2 μg/mL leupeptin, 2 μg/mL pepstatin A, 100 μg/mL phenylmethylsulfonyl fluoride, 1 μg/mL antipain). The protease analysis buffer necessary for the reaction (20 mM HEPES (pH 7.5), 10% glycerol, 2 mM DTT) was mixed with 20 μM Ac-DEVD-AMC (BD Biosciences, CA, USA) and cell lysates, followed by reaction at 37° C. for 1 hour. Upon completion of the reaction, caspase-3 activity was measured at 380 nm of excitation and 460 nm of emission with spectrofluorometer (TECAN, Switzerland) and the results are shown in FIG. 18 and Table 8.

[4] = biological target: T2, Cdk2/cyclin A (Homo sapiens, UniProt P24941); experiment: In vitro kinase activity assay, histone H1 phosphorylation by Cdk2/cyclin A; type: biochemical; details: for Phosphorylation (%) Cdk2: 0 nM = 100%
T2 construct: purchased Upstate
Procedure: To kinase assay buffer (50 mM Tris (pH 7.4), 10 mM magnesium chloride, 1 mM EGTA, 40 mM β-glycerophosphate, 0.1 mM Na3VO4, 1 mM DTT, 0.1 μg/mL leupeptin, 0.1 μg/mL pepstatin A, 0.1 μg/mL antipain and 1 mM phenylmethylsulfonyl fluoride) were added 5 μg histone H1 as a substrate, 20 ng Cdk1/cyclin B or 40 ng Cdk2/cyclin A recombinant protein (Upstate, NY, USA) as an enzyme, 2.5 μCi [γ-32P]ATP, and 100 μM MgAc/ATP. The total reaction volume was adjusted to 50 μl. The compound of Example 2 was added to the reaction mixture, followed by inducing kinase reaction at 30° C. for 20 minutes. Upon completion of the reaction, the reaction mixture proceeded to electrophoresis on 12% SDS-polyacrylamide gel. Phosphorylation levels of Cdk1 and Cdk2 over the concentrations of the compound of Example 2 were confirmed by autoradiography, and the results are shown in FIG. 1, FIG. 2, and Table 1.
as §1

[5] = tested on: p-Rb (Cdk2); experiment: Western blotting of p-Rb (Cdk2) in SNU-354 cells; type: cell-based, human
Procedure: SNU-354 cells were cultured in RPMI 1640 (Invitrogen, CA, USA) supplemented with 10% FBS (Invitrogen) and antibiotics/antimycotics (Invitrogen) in a 5% CO2 incubator at 37° C. […]
After treating the compound of Example 2 to SNU-354 cells, cell pellet was lysed with lysis buffer (0.5% triton X-100, 20 mM Tris-HCl (pH 7.5), 2 mM magnesium chloride, 1 mM DTT, 1 mM EGTA, 50 mM β-glycerophosphate, 25 mM sodium fluoride, 1 mM Na3VO4, 2 μg/mL leupeptin, 2 μg/mL pepstatin A, 100 μg/mL phenylmethylsulfonyl fluoride, and 1 μg/mL antipain) at 4° C. for 1 hour, followed by quantification of protein. A proper amount of protein was electrophoresed on SDS-PAGE gel and then transferred onto polyvinylidene difluoride membrane (Millipore Co., Bedford, Mass.). The membrane was reacted in inhibiting solution (PBS, 5% skim milk, 0.1% tween-20) at room temperature for 1˜2 hours. The membrane was reacted with the primary antibody (goat anti-phospho-Rb, rabbit anti-nucleolin) diluted in the inhibiting solution (1:1000). Then, the membrane was washed with PBST, followed by reaction with the proper secondary antibody (horseradish peroxidase (HRP) conjugated) at room temperature for 1 hour.

NC(=O)c1c(Br)nc2n([C@H]3O[C@@H](CO)[C@H](O)[C@H]3O)cnc(N)c1-2 [Example 1, 4-amino-6-bromo-1-((2S,3R,4R,5S)-3,4-dihydroxy-5-(hydroxymethyl)-tetrahydrofuran-2-yl)-1H-pyrrolo[2,3-d]pyrimidine-5-carboxamide]
sub G1 ratio (%) ([1]; 0.1 μM, 24 hours, 0 μM = 3.0): 2.7%
sub G1 ratio (%) ([1]; 0.5 μM, 24 hours, 0 μM = 3.0): 3.2%
sub G1 ratio (%) ([1]; 1 μM, 24 hours, 0 μM = 3.0): 3.5%
sub G1 ratio (%) ([1]; 5 μM, 24 hours, 0 μM = 3.0): 28.1%
sub G1 ratio (%) ([1]; 10 μM, 24 hours, 0 μM = 3.0): 64.2%
sub G1 ratio (%) ([1]; 50 μM, 24 hours, 0 μM = 3.0): 71.1%
sub G1 ratio (%) ([1]; 50 μM, time 6 h, 0 h = 10.3): 29.1%
sub G1 ratio (%) ([1]; 50 μM, time 12 h, 0 h = 10.3): 51.8%
sub G1 ratio (%) ([1]; 50 μM, time 18 h, 0 h = 10.3): 71.7%
sub G1 ratio (%) ([1]; 50 μM, time 24 h, 0 h = 10.3): 78.1%
concentration at which sub G1 ratio was rapidly increased ([1]; 24 hours): 5 µM
Cdk9 activity ([2]; 10 nM): 15.8%
Cdk9 activity ([2]; 100 nM): 1.0%
Cdk9 activity ([2]; 1000 nM): 0.1%
caspase-3 activity relative to the control ([3]; 1.0 uM and up): three times as high as that of the control

CC(C)C(=O)OC[C@@H]1O[C@H](n2cnc(N)c3c(C(N)=O)c(Br)nc2-3)[C@H](O)[C@H]1O [Example 2, ((2S,3R,4R,5S)-5-(4-amino-6-bromo-5-carbamoyl-1H-pyrrolo[2,3-d]pyrimidin-1-yl)-3,4-dihydroxy-tetrahydrofuran-2-yl)methyl isobutyrate]
sub G1 ratio (%) ([1]; 0.1 μM, 24 hours, 0 μM = 3.0): 3.8%
sub G1 ratio (%) ([1]; 0.5 μM, 24 hours, 0 μM = 3.0): 39.6%
sub G1 ratio (%) ([1]; 1 μM, 24 hours, 0 μM = 3.0): 52.0%
sub G1 ratio (%) ([1]; 5 μM, 24 hours, 0 μM = 3.0): 69.8%
sub G1 ratio (%) ([1]; 10 μM, 24 hours, 0 μM = 3.0): 72.6%
sub G1 ratio (%) ([1]; 50 μM, 24 hours, 0 μM = 3.0): 73.1%
sub G1 ratio (%) ([1]; 50 μM, time 6 h, 0 h = 10.3): 51.6%
sub G1 ratio (%) ([1]; 50 μM, time 12 h, 0 h = 10.3): 67.6%
sub G1 ratio (%) ([1]; 50 μM, time 18 h, 0 h = 10.3): 72.3%
sub G1 ratio (%) ([1]; 50 μM, time 24 h, 0 h = 10.3): 81.2%
concentration at which sub G1 ratio was rapidly increased ([1]; 24 hours): 0.5 µM
Phosphorylation (%) Cdk2 ([4]; 10 nM): 86.5%
Phosphorylation (%) Cdk2 ([4]; 20 nM): 75.0%
Phosphorylation (%) Cdk2 ([4]; 40 nM): 59.0%
Phosphorylation (%) Cdk2 ([4]; 50 nM): 50%
Phosphorylation (%) Cdk2 ([4]; 60 nM): 43.0%
Phosphorylation (%) Cdk2 ([4]; 80 nM): 39.2%
Phosphorylation (%) Cdk2 ([4]; 100 nM): 4.5%
IC50 ([4]; histone H1 phosphorylation): 50 nM
Phosphorylation (%) p-Rb(Cdk2) ([5]; treatment time 6 (hours)): 3.6%
Phosphorylation (%) p-Rb(Cdk2) ([5]; treatment time 12 (hours)): 2.7%
Phosphorylation (%) p-Rb(Cdk2) ([5]; treatment time 18 (hours)): 0.6%
Phosphorylation (%) p-Rb(Cdk2) ([5]; treatment time 24 (hours)): 0.3%
Cdk9 activity ([2]; 10 nM): 95.4%
Cdk9 activity ([2]; 100 nM): 40.5%
Cdk9 activity ([2]; 1000 nM): 3.3%
caspase-3 activity relative to the control ([3]; 0.5 uM and up): 7 times
